Laboratory results: US20260250318A1, “COMPOSITIONS AND METHODS FOR CROSSING THE BLOOD BRAIN BARRIER” (VOYAGER THERAPEUTICS, INC., priority 2022, published 2026)

Test system: brains, heart, liver, muscle, and DRG of the NHPs
Test: Maturation of TTM-001 and TTM-002 capsids, NGS enrichment in NHP tissues
Type: in vivo
Description: This Example describes maturation of the AAV9 capsid variants, TTM-001 (SEQ ID NO: 981 (amino acid) and 983 (DNA), comprising SEQ ID NO: 941 (encoded by SEQ ID NO: 942)) and TTM-002 (SEQ ID NO: 982 (amino acid) and 984 (DNA), comprising SEQ ID NO: […] (encoded by SEQ ID NO: 944)) in NHPs to further enhance their transduction and biodistribution in the central nervous system as well as other tissues, and evolve the AAV capsid variants to provide further cross-species compatibility. Two approaches were used to mature the TTM-001 and TTM-002 capsid sequences in order to randomize and mutate within and around the peptide insert comprised within loop IV of the capsid variant. […] In the first maturation approach, sets of three contiguous amino acids were randomized across the mutagenesis region in the TTM-001 and TTM-002 sequences, which spanned from position 450 to position 466, numbered according to SEQ ID NO: 981 and 982. In the second maturation approach, mutagenic primers were used to introduce point mutations at a low frequency, scattered across the mutagenesis region in the TTM-001 and TTM-002 sequences ranging from position 449 to position 466, numbered according to SEQ ID NO: 981 and 982. AAV capsid variants arising from each maturation approach for TTM-001 and TTM-002 were pooled together, for subsequent testing and characterization in NHPs.
The library of pooled matured AAV capsid variants generated using the first maturation approach and the second maturation approach for the TTM-001 and TTM-002 AAV capsid variants were injected into two NHPs. […] Following RNA recovery and RT-PCR amplification, a systematic NGS enrichment analysis was performed to calculate the fold enrichment ratio relative to an AAV9 control, and the peptides comprised within the variants were identified.
Following the RNA recovery and NGS analysis from the second maturation approach, approximately 680,000 capsid variants were identified. The 680,000 matured capsid variants were then filtered based on samples with a raw virus count greater than 10 and a coefficient of variance (CV) of less than 1, which was calculated for each peptide across the brain samples taken from the two NHPs. […] Using this filtering criteria, this led to approximately 64,000 matured capsid variants.

[1] = NHP DRG, NGS, relative to AAV9 control
[2] = NHP brain, NGS, relative to AAV9 control
[3] = NHP heart, NGS, relative to AAV9 control
[4] = NHP liver DNA, NGS, relative to AAV9 control
[5] = NHP liver RNA, NGS, TTM-001 and TTM-002 matured AAV capsid variants, relative to AAV9 control
[6] = NHP muscle, NGS, relative to AAV9 control
[7] = NGS fold-enrichment, DRG, NHP, relative to AAV9
[8] = NGS fold-enrichment, brain, NHP, relative to AAV9
[9] = NGS fold-enrichment, heart, NHP, relative to AAV9
[10] = NGS fold-enrichment, liver DNA, NHP, relative to AAV9
[11] = NGS fold-enrichment, liver RNA, NHP, relative to AAV9
[12] = NGS fold-enrichment, muscle, NHP, relative to AAV9

KTINHRISPHSKAQNQQT
Fold Enrichment relative to AAV9, DRG (NHP) [1]: 0.000 fold
Fold Enrichment relative to AAV9, Brain (NHP) [2]: 0.000 fold
Fold Enrichment relative to AAV9, Heart (NHP) [3]: 0.000 fold
Fold Enrichment relative to AAV9, Liver DNA (NHP) [4]: 1.876 fold
Fold Enrichment relative to AAV9, Liver RNA (NHP) [5]: 42.998 fold
Fold Enrichment relative to AAV9, Muscle (NHP) [6]: 0.000 fold

KTINGSGSPHSYYSNQQT
Fold Enrichment relative to AAV9, DRG (NHP) [7]: 0.000 fold
Fold Enrichment relative to AAV9, Brain (NHP) [8]: 0.000 fold
Fold Enrichment relative to AAV9, Heart (NHP) [9]: 0.000 fold
Fold Enrichment relative to AAV9, Liver DNA (NHP) [10]: 2.856 fold
Fold Enrichment relative to AAV9, Liver RNA (NHP) [11]: 10.680 fold
Fold Enrichment relative to AAV9, Muscle (NHP) [12]: 0.000 fold

KTINGSGSPHSKLCTQQT
Fold Enrichment relative to AAV9, DRG (NHP) [1]: 0.000 fold
Fold Enrichment relative to AAV9, Brain (NHP) [2]: 0.000 fold
Fold Enrichment relative to AAV9, Heart (NHP) [3]: 0.000 fold
Fold Enrichment relative to AAV9, Liver DNA (NHP) [4]: 1.269 fold
Fold Enrichment relative to AAV9, Liver RNA (NHP) [5]: 18.674 fold
Fold Enrichment relative to AAV9, Muscle (NHP) [6]: 0.000 fold

KTINGSGSPHSKTRKQQT
Fold Enrichment relative to AAV9, DRG (NHP) [1]: 0.000 fold
Fold Enrichment relative to AAV9, Brain (NHP) [2]: 0.000 fold
Fold Enrichment relative to AAV9, Heart (NHP) [3]: 0.000 fold
Fold Enrichment relative to AAV9, Liver DNA (NHP) [4]: 2.858 fold
Fold Enrichment relative to AAV9, Liver RNA (NHP) [5]: 36.010 fold
Fold Enrichment relative to AAV9, Muscle (NHP) [6]: 0.000 fold

KTINGSGSPHSYLVNQQT
Fold Enrichment relative to AAV9, DRG (NHP) [1]: 0.000 fold
Fold Enrichment relative to AAV9, Brain (NHP) [2]: 0.000 fold
Fold Enrichment relative to AAV9, Heart (NHP) [3]: 0.000 fold
Fold Enrichment relative to AAV9, Liver DNA (NHP) [4]: 1.267 fold
Fold Enrichment relative to AAV9, Liver RNA (NHP) [5]: 17.766 fold
Fold Enrichment relative to AAV9, Muscle (NHP) [6]: 0.000 fold

KTINGSGSPHSKARISQT
Fold Enrichment relative to AAV9, DRG (NHP) [1]: 0.000 fold
Fold Enrichment relative to AAV9, Brain (NHP) [2]: 0.000 fold
Fold Enrichment relative to AAV9, Heart (NHP) [3]: 0.000 fold
Fold Enrichment relative to AAV9, Liver DNA (NHP) [4]: 1.565 fold
Fold Enrichment relative to AAV9, Liver RNA (NHP) [5]: 12.142 fold
Fold Enrichment relative to AAV9, Muscle (NHP) [6]: 0.000 fold

KTINGSVSPHCTAQNQQT (peptide inserted in AAV capsid)
Fold Enrichment relative to AAV9, DRG (NHP) [1]: 0.000 fold
Fold Enrichment relative to AAV9, Brain (NHP) [2]: 0.000 fold
Fold Enrichment relative to AAV9, Heart (NHP) [3]: 0.000 fold
Fold Enrichment relative to AAV9, Liver DNA (NHP) [4]: 2.955 fold
Fold Enrichment relative to AAV9, Liver RNA (NHP) [5]: 13.502 fold
Fold Enrichment relative to AAV9, Muscle (NHP) [6]: 0.000 fold

KTINGSGSPHSGACNQQT
Fold Enrichment relative to AAV9, DRG (NHP) [1]: 0.000 fold
Fold Enrichment relative to AAV9, Brain (NHP) [2]: 0.000 fold
Fold Enrichment relative to AAV9, Heart (NHP) [3]: 0.000 fold
Fold Enrichment relative to AAV9, Liver DNA (NHP) [4]: 3.215 fold
Fold Enrichment relative to AAV9, Liver RNA (NHP) [5]: 39.163 fold
Fold Enrichment relative to AAV9, Muscle (NHP) [6]: 4733.916 fold

KTINGSGSPHSLYWNQQT
Fold Enrichment relative to AAV9, DRG (NHP) [1]: 0.000 fold
Fold Enrichment relative to AAV9, Brain (NHP) [2]: 0.000 fold
Fold Enrichment relative to AAV9, Heart (NHP) [3]: 0.000 fold
Fold Enrichment relative to AAV9, Liver DNA (NHP) [4]: 0.000 fold
Fold Enrichment relative to AAV9, Liver RNA (NHP) [5]: 53.262 fold
Fold Enrichment relative to AAV9, Muscle (NHP) [6]: 0.000 fold

KTINGSGSPHSKWKSQQT
Fold Enrichment relative to AAV9, DRG (NHP) [1]: 0.000 fold
Fold Enrichment relative to AAV9, Brain (NHP) [2]: 0.000 fold
Fold Enrichment relative to AAV9, Heart (NHP) [3]: 4.904 fold
Fold Enrichment relative to AAV9, Liver DNA (NHP) [4]: 1.239 fold
Fold Enrichment relative to AAV9, Liver RNA (NHP) [5]: 20.390 fold
Fold Enrichment relative to AAV9, Muscle (NHP) [6]: 0.163 fold

KTINGSGSPHSLPYNQQT
Fold Enrichment relative to AAV9, DRG (NHP) [1]: 0.000 fold
Fold Enrichment relative to AAV9, Brain (NHP) [2]: 0.000 fold
Fold Enrichment relative to AAV9, Heart (NHP) [3]: 0.000 fold
Fold Enrichment relative to AAV9, Liver DNA (NHP) [4]: 2.048 fold
Fold Enrichment relative to AAV9, Liver RNA (NHP) [5]: 14.792 fold
Fold Enrichment relative to AAV9, Muscle (NHP) [6]: 0.000 fold

KTINGSGSPHRPWQNQQT
Fold Enrichment relative to AAV9, DRG (NHP) [1]: 0.000 fold
Fold Enrichment relative to AAV9, Brain (NHP) [2]: 0.000 fold
Fold Enrichment relative to AAV9, Heart (NHP) [3]: 0.000 fold
Fold Enrichment relative to AAV9, Liver DNA (NHP) [4]: 4.936 fold
Fold Enrichment relative to AAV9, Liver RNA (NHP) [5]: 16.869 fold
Fold Enrichment relative to AAV9, Muscle (NHP) [6]: 0.000 fold

KYIVGSGSPHSKAQNQQT (peptide inserted in AAV capsid)
Fold Enrichment relative to AAV9, DRG (NHP) [1]: 0.000 fold
Fold Enrichment relative to AAV9, Brain (NHP) [2]: 0.000 fold
Fold Enrichment relative to AAV9, Heart (NHP) [3]: 0.000 fold
Fold Enrichment relative to AAV9, Liver DNA (NHP) [4]: 4.480 fold
Fold Enrichment relative to AAV9, Liver RNA (NHP) [5]: 94.721 fold
Fold Enrichment relative to AAV9, Muscle (NHP) [6]: 0.000 fold

KTINGSGSPHLRWQNQQT
Fold Enrichment relative to AAV9, DRG (NHP) [1]: 0.000 fold
Fold Enrichment relative to AAV9, Brain (NHP) [2]: 0.000 fold
Fold Enrichment relative to AAV9, Heart (NHP) [3]: 0.000 fold
Fold Enrichment relative to AAV9, Liver DNA (NHP) [4]: 9.649 fold
Fold Enrichment relative to AAV9, Liver RNA (NHP) [5]: 21.014 fold
Fold Enrichment relative to AAV9, Muscle (NHP) [6]: 0.000 fold

KTINGSGSPHSKAKKVQT
Fold Enrichment relative to AAV9, DRG (NHP) [7]: 0.000 fold
Fold Enrichment relative to AAV9, Brain (NHP) [8]: 0.000 fold
Fold Enrichment relative to AAV9, Heart (NHP) [9]: 0.000 fold
Fold Enrichment relative to AAV9, Liver DNA (NHP) [10]: 3.974 fold
Fold Enrichment relative to AAV9, Liver RNA (NHP) [11]: 10.102 fold
Fold Enrichment relative to AAV9, Muscle (NHP) [12]: 0.000 fold

KTINGSGSPHSYARNQQT
Fold Enrichment relative to AAV9, DRG (NHP) [1]: 0.000 fold
Fold Enrichment relative to AAV9, Brain (NHP) [2]: 0.000 fold
Fold Enrichment relative to AAV9, Heart (NHP) [3]: 0.000 fold
Fold Enrichment relative to AAV9, Liver DNA (NHP) [4]: 0.996 fold
Fold Enrichment relative to AAV9, Liver RNA (NHP) [5]: 11.131 fold
Fold Enrichment relative to AAV9, Muscle (NHP) [6]: 0.000 fold

KTINGSGSPHSKCSVQQT
Fold Enrichment relative to AAV9, DRG (NHP) [1]: 0.000 fold
Fold Enrichment relative to AAV9, Brain (NHP) [2]: 0.000 fold
Fold Enrichment relative to AAV9, Heart (NHP) [3]: 0.000 fold
Fold Enrichment relative to AAV9, Liver DNA (NHP) [4]: 1.465 fold
Fold Enrichment relative to AAV9, Liver RNA (NHP) [5]: 12.246 fold
Fold Enrichment relative to AAV9, Muscle (NHP) [6]: 0.000 fold

KTINGRRSPHGKAQNQQT
Fold Enrichment relative to AAV9, DRG (NHP) [1]: 0.000 fold
Fold Enrichment relative to AAV9, Brain (NHP) [2]: 0.000 fold
Fold Enrichment relative to AAV9, Heart (NHP) [3]: 0.000 fold
Fold Enrichment relative to AAV9, Liver DNA (NHP) [4]: 3.259 fold
Fold Enrichment relative to AAV9, Liver RNA (NHP) [5]: 37.728 fold
Fold Enrichment relative to AAV9, Muscle (NHP) [6]: 0.000 fold

KTINGSGSPHSKAQSAKT
Fold Enrichment relative to AAV9, DRG (NHP) [1]: 0.000 fold
Fold Enrichment relative to AAV9, Brain (NHP) [2]: 0.000 fold
Fold Enrichment relative to AAV9, Heart (NHP) [3]: 0.000 fold
Fold Enrichment relative to AAV9, Liver DNA (NHP) [4]: 4.200 fold
Fold Enrichment relative to AAV9, Liver RNA (NHP) [5]: 11.162 fold
Fold Enrichment relative to AAV9, Muscle (NHP) [6]: 0.000 fold

KTMQRSGSPHSKAQNQQT
Fold Enrichment relative to AAV9, DRG (NHP) [1]: 0.000 fold
Fold Enrichment relative to AAV9, Brain (NHP) [2]: 0.000 fold
Fold Enrichment relative to AAV9, Heart (NHP) [3]: 0.000 fold
Fold Enrichment relative to AAV9, Liver DNA (NHP) [4]: 3.159 fold
Fold Enrichment relative to AAV9, Liver RNA (NHP) [5]: 18.020 fold
Fold Enrichment relative to AAV9, Muscle (NHP) [6]: 0.000 fold
